Results from patent US8975401B2, “Quinazoline based EGFR inhibitors containing a zinc binding moiety” (Curis, Inc., priority 2006, dated 2015).

Target: T1, human EGFR (His672-Ala1210) (Homo sapiens, UniProt P00533)
T1 construct: human EGFR (His672-Ala1210); GST (N); purchased Cell Signaling Technologies; host or cells: baculovirus expression system
Assay: HTScan EGF Receptor Kinase Assay
Format: biochemical
Method: The ability of compounds to inhibit receptor kinase (EGFR) activity was assayed using HTSCAN™ EGF Receptor Kinase Assay Kits (Cell Signaling Technologies, Danvers, Mass.). […] The protein was purified by one-step affinity chromatography using glutathione-agarose.
Immediately transfer enzyme from −80° C. to ice. Allowed enzyme to thaw on ice. […] Returned immediately to ice. […] Incubated reaction plate at room temperature for 30 minutes. […] Added 100 μl/well primary antibody. Incubated at room temperature for 60 minutes. […] Added 100 μl/well diluted antibody. Incubated at room temperature for 30 minutes. […] Incubated at room temperature for 5 minutes.

T1 sequence (P00533 672-1210): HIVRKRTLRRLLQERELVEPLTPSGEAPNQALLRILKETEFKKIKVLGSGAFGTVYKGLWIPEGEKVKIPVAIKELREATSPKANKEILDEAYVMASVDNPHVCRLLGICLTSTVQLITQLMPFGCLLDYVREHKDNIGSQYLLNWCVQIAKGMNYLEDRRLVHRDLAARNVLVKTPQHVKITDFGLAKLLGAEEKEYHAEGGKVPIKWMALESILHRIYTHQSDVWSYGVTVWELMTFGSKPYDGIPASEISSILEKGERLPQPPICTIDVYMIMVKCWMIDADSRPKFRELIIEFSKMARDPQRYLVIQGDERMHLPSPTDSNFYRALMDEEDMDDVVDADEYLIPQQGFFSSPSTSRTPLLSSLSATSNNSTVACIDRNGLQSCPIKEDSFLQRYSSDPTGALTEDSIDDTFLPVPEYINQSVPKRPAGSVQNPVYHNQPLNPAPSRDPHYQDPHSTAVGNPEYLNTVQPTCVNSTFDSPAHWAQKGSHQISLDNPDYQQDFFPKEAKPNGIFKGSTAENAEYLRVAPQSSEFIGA

IC50 [nM]	Compound
< 100	COc1cc2ncnc(N[C@H](C)c3ccccc3)c2cc1OCCCCCC(=O)NO [Compound 77, (R)—N-hydroxy-6-(7-methoxy-4-(1-phenylethylamino)quinazolin-6-yloxy)-hexanamide]
< 100	C#Cc1cccc(Nc2ncnc3cc(OC)c(NC(=O)CCCCC(=O)NO)cc23)c1 [Compound 43, N^1-(4-(3-ethynylphenylamino)-7-methoxyquinazolin-6-yl)-N^6-hydroxyadipamide]
< 100	C#Cc1cccc(Nc2ncnc3ccc(OCC(=O)NO)cc23)c1 [Compound 19, 2-(4-(3-ethynylphenylamino)quinazolin-6-yloxy)-N-hydroxyacetamide]
< 100	O=C(COc1ccc2ncnc(Nc3ccc(F)c(Cl)c3)c2c1)NO [Compound 13, 2-(4-(3-chloro-4-fluorophenylamino)quinazolin-6-yloxy)-N-hydroxyacetamide]
100 to 1000	C[C@@H](Nc1ncnc2ccc(OCCCCCC(=O)NO)cc12)c1ccccc1 [Compound 50]
> 10000	COc1ccc([C@@H](C)Nc2ncnc3cc(OC)c(OCCCCCCC(=O)NO)cc23)cc1 [Compound 83, (R)—N-hydroxy-7-(7-methoxy-4-(1-(4-methoxyphenyl)ethylamino)quinazolin-6-yloxy)-heptanamide]
< 100	COc1cc2ncnc(Nc3ccc(F)c(Cl)c3)c2cc1OCCOc1ccc(CC(=O)NO)cc1 [Compound 91]
< 100	C#Cc1cccc(Nc2ncnc3cc(OC)c(NC(=O)CCCCCCC(=O)NO)cc23)c1 [Compound 44, N^1-(4-(3-ethynylphenylamino)-7-methoxyquinazolin-6-yl)-N^8-hydroxyoctanediamide]
< 100	O=C(CCCCCOc1ccc2ncnc(Nc3ccc(F)c(Cl)c3)c2c1)NO [Compound 17, 6-(4-(3-chloro-4-fluorophenylamino)quinazolin-6-yloxy)-N-hydroxy hexanamide]
< 100	C#Cc1cccc(Nc2ncnc3cc(OC)c(OCCCC(=O)NO)cc23)c1 [Compound 9, 4-(4-(3-ethynylphenylamino)-7-methoxyquinazolin-6-yloxy)-N-hydroxybutanamide]
< 100	C#Cc1cccc(Nc2ncnc3cc(OC)c(OCCC(=O)NO)cc23)c1 [Compound 8]
100 to 1000	COc1cc2ncnc(NCc3cccc(Br)c3)c2cc1OCCCCCCC(=O)NO [Compound 89, 7-(4-(3-bromobenzylamino)-7-methoxyquinazolin-6-yloxy)-N-hydroxyheptanamide]
< 100	COCCOc1cc2ncnc(Nc3ccc(F)c(Cl)c3)c2cc1NC(=O)CCCCC(=O)NO [Compound 69, N^1-(4-(3-chloro-4-fluorophenylamino)-7-(2-methoxyethoxy)quinazolin-6-yl)-N^6-hydroxyadipamide]
< 100	COc1cc2ncnc(Nc3ccc(F)c(Cl)c3)c2cc1NC(=O)CCCC(=O)NO [Compound 38, N^1-(4-(3-chloro-4-fluorophenylamino)-7-methoxyquinazolin-6-yl)-N^5-hydroxyglutaramide]
< 100	COCCOc1cc2ncnc(Nc3ccc(F)c(Cl)c3)c2cc1NC(=O)CCCC(=O)NO [Compound 68, N^1-(4-(3-chloro-4-fluorophenylamino)-7-(2-methoxyethoxy)quinazolin-6-yl)-N^5-hydroxyglutaramide]
100 to 1000	COc1cc2ncnc(NCc3ccc(F)c(F)c3)c2cc1OCCCCCCC(=O)NO [Compound 87, 7-(4-(3,4-difluorobenzylamino)-7-methoxyquinazolin-6-yloxy)-N-hydroxyheptanamide]
< 100	COc1cc2ncnc(Nc3ccc(F)c(Cl)c3)c2cc1OCCOc1ccc(/C=C/C(=O)NO)cc1 [Compound 66, (E)-3-(4-(2-(4-(3-chloro-4-fluorophenylamino)-7-methoxyquinazolin-6-yloxy)ethoxy)phenyl)-N-hydroxyacrylamide]

IC50 [nM]	Compound
< 100	O=C(CCCCOc1ccc2ncnc(Nc3ccc(F)c(Cl)c3)c2c1)NO [Compound 16, 5-(4-(3-chloro-4-fluorophenylamino)quinazolin-6-yloxy)-N-hydroxypentanamide]
100 to 1000	Nc1cc(Br)ccc1NC(=O)COc1ccc2ncnc(Nc3ccc(F)c(Cl)c3)c2c1 [Compound 45]
< 100	COc1cc2ncnc(Nc3ccc(F)c(Cl)c3)c2cc1OCCCCCCC(=O)N(C)O [Compound 94]
< 100	COc1cc2ncnc(Nc3ccc(F)c(Cl)c3)c2cc1NC(=O)Nc1ccc(C(=O)NO)cc1 [Compound 93]
< 100	C#Cc1cccc(Nc2ncnc3cc(OC)c(OCC(=O)NO)cc23)c1 [Compound 7, 2-(4-(3-ethynylphenylamino)-7-methoxyquinazolin-6-yloxy)-N-hydroxyacetamide]
< 100	C#Cc1cccc(Nc2ncnc3cc(OCCOC)c(OCCCCCCC(=O)NO)cc23)c1 [Compound 36, 7-(4-(3-Ethynylphenylamino)-7-(2-methoxyethoxy)quinazolin-6-yloxy)-N-hydroxyheptanamide]
100 to 1000	C#Cc1cccc(Nc2ncnc3ccc(OCCCC(=O)NO)cc23)c1 [Compound 21, 4-(4-(3-ethynylphenylamino)quinazolin-6-yloxy)-N-hydroxybutanamide]
< 100	C#Cc1cc(Nc2ncnc3cc(OC)c(OCCCCCCC(=O)NO)cc23)ccc1F [Compound 75, 7-(4-(3-ethynyl-4-fluorophenylamino)-7-methoxyquinazolin-6-yloxy)-N-hydroxyheptanamide]
100 to 1000	COc1cc2ncnc(NCCc3ccccc3)c2cc1OCCCCCCC(=O)NO [Compound 84]
< 100	C#Cc1cccc(Nc2ncnc3cc(OC)c(NC(=O)CCCC(=O)NO)cc23)c1 [Compound 42, N^1-(4-(3-ethynylphenylamino)-7-methoxyquinazolin-6-yl)-N^5-hydroxyglutaramide]
100 to 1000	C#Cc1cccc(Nc2ncnc3ccc(OCCCCCCC(=O)NO)cc23)c1 [Compound 24, 7-(4-(3-ethynylphenylamino)quinazolin-6-yloxy)-N-hydroxyheptanamide]
< 100	C#Cc1cccc(Nc2ncnc3ccc(OCCCCC(=O)NO)cc23)c1 [Compound 22]
100 to 1000	C#Cc1cccc(Nc2ncnc3ccc(OCCCCCC(=O)NO)cc23)c1 [Compound 23, 6-(4-(3-ethynylphenylamino)quinazolin-6-yloxy)-N-hydroxyhexanamide]
< 100	O=C(CCOc1ccc2ncnc(Nc3ccc(F)c(Cl)c3)c2c1)NO [Compound 14]
< 100	C#Cc1cc(Nc2ncnc3cc(OCCOC)c(OCCCCCCC(=O)NO)cc23)ccc1F [Compound 76]
< 100	COc1cc2ncnc(Nc3ccc(F)c(Cl)c3)c2cc1OCCCCC(=O)NO [Compound 4]
< 100	COc1cc2ncnc(Nc3ccc(F)c(Cl)c3)c2cc1OCC(=O)NO [Compound 1, 2-(4-(3-Chloro-4-fluorophenylamino)-7-methoxyquinazolin-6-yloxy)-N-hydroxyacetamide]

Compound	IC50 [nM]
COCCOc1cc2ncnc(Nc3ccc(F)c(Cl)c3)c2cc1OCCCCCCC(=O)NO [Compound 30, 7-(4-(3-Chloro-4-fluorophenylamino)-7-(2-methoxyethoxy)quinazolin-6-yloxy)-N-hydroxyheptanamide]	< 100
C#Cc1cccc(Nc2ncnc3cc(OC)c(OCCCCCC(=O)NO)cc23)c1 [Compound 11, 6-(4-(3-ethynylphenylamino)-7-methoxyquinazolin-6-yloxy)-N-hydroxyhexanamide]	< 100
COc1cc2ncnc(N[C@H](C)c3ccc(F)cc3)c2cc1OCCCCCCC(=O)NO [Compound 81, (R)-7-(4-(1-(4-fluorophenyl)ethylamino)-7-methoxyquinazolin-6-yloxy)-N-hydroxyheptanamide]	100 to 1000
COc1cc2ncnc(NCc3ccc(F)c(Cl)c3)c2cc1OCCCCCCC(=O)NO [Compound 88, 7-(4-(3-chloro-4-fluorobenzylamino)-7-methoxyquinazolin-6-yloxy)-N-hydroxyheptanamide]	< 100
COc1cc2ncnc(Nc3ccc(F)c(Cl)c3)c2cc1OCCC(=O)NO [Compound 2]	< 100
COc1cc2ncnc(Nc3ccc(F)c(Cl)c3)c2cc1OCCCCCC(=O)NO [Compound 5]	< 100
COc1cc2ncnc(Nc3ccc(F)c(Cl)c3)c2cc1NC(=O)CCCCCCC(=O)NO [Compound 40, N^1-(4-(3-chloro-4-fluorophenylamino)-7-methoxyquinazolin-6-yl)-N^8-hydroxyoctanediamide]	< 100
COc1cc2ncnc(Nc3ccc(F)c(Cl)c3)c2cc1OCCCC(=O)NO [Compound 3, 4-(4-(3-Chloro-4-fluorophenylamino)-7-methoxyquinazolin-6-yloxy)-N-hydroxybutanamide]	< 100
COc1cc2ncnc(N[C@H](C)c3ccc(Cl)cc3)c2cc1OCCCCCCC(=O)NO [Compound 82, (R)-7-(4-(1-(4-chlorophenyl)ethylamino)-7-methoxyquinazolin-6-yloxy)-N-hydroxyheptanamide]	100 to 1000
O=C(CCCCCCOc1ccc2ncnc(Nc3ccc(F)c(Cl)c3)c2c1)NO [Compound 18, 7-(4-(3-chloro-4-fluorophenylamino)quinazolin-6-yloxy)-N-hydroxyheptanamide]	< 100
